Test results as given in PubChem BioAssay AID179 (DTP/NCI, 2004).
“And” between values parts separate entries of the source, which are not always exact repeats. Equal entries are not always repeated. The source made the active and inactive calls.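 The calls were made as follows: active = compounds giving half or more protection of infected cells from virus-caused growth loss, again on retest; inactive = the rest.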

Test system: CEM cells HIV-1 protection, formazan growth assay
Experiment: NCI AIDS Antiviral Assay
Conditions: for IC50: measured here: growth of uninfected CEM cells
Method: The ability of compounds to protect human CEM cells from HIV-1 infection is measured as a screen for new compounds capable of inhibiting the HIV virus. Five concentrations of drug were tested on uninfected and infected cells and cell growth was measured using a soluble formazan assay. […] Compounds that provided at least 50% protection were retested. Compounds that provided at least 50% protection on retest were listed as moderately active. Compounds that reproducibly provided 100% protection were listed as confirmed active. […] Note that the inability to provide protection could be due to toxicity.

## O=C1CSCc2sccc21
  EC50: > 200 µM
  IC50: > 200 µM

## COc1ccc(-c2coc3c(OC)c(OC)c(OC)c(OC)c3c2=O)cc1
  EC50: > 200 µM
  IC50: 44.7 µM

## COC(=O)c1cc(C(=CCC23CC4CC(CC(C4)C2)C3)c2cc(Cl)c(OC)c(C(=O)OC)c2)cc(Cl)c1OC
  EC50: > 17.4 µM
  IC50: > 17.4 µM

## NC(=O)c1nnsc1NC=O
  EC50: > 200 µM
  IC50: > 200 µM

## O=S(=O)(c1ccc(NC(=S)Nc2ccccc2)cc1)c1ccc(NC(=S)Nc2ccccc2)cc1
  EC50: > 200 µM
  IC50: > 200 µM

## CC(C)(C)OC(=O)NCCNCCNc1ccccc1
  outcome: inactive

## CC(C)(C)NC(=O)N1N=C(c2ccccc2)C1c1ccccc1 (configuration not stated)
  EC50: > 200 µM
  IC50: 26.9 µM

## O=C1C[C@H]2[C@@H](O1)[C@@H](O)CN1C(=O)c3ccccc3[C@H]21
  EC50: > 200 µM
  IC50: > 200 µM

## COc1cc2c(cc1OC)c1c(OC)c(OC)cc3c1c1c2sc(=S)n1CC3
  outcome: inactive

## C=C(C)C1CC2C(C)=C(OC(C)=O)C1n1c(=O)c3cc4ccccc4cc3c(=O)n12 (configuration not stated)
  EC50: > 46.8 µM
  IC50: > 46.8 µM

## COCC(=O)OC1CCn2c1nc1c2C(=O)C(C)=C(NC(C)=O)C1=O (configuration not stated)
  EC50: > 200 µM
  IC50: 1.26 µM

## [N-]=[N+]=Nc1ccc2c(c1)Sc1ccccc1N2CCCCN1CCN(C(=O)CCNC(=O)Cc2ccc(C(=O)c3ccccc3)cc2)CC1
  EC50: > 200 µM
  IC50: 3.89 µM

## O=S(=O)([O-])[O-].O=c1[nH]cnc2nc[n-]c12.[OH3+].[OH3+].[Zn+2]
  EC50: > 21.4 µM
  IC50: > 21.4 µM

## COc1cc2c(c(Oc3ccc(C)cc3)c1)CN(C)CC2
  EC50: > 200 µM
  IC50: 75.9 µM

## COc1cc(OC)c(Oc2cccc(OC)c2OC)c(OC)c1
  EC50: > 16.2 µM
  IC50: > 16.2 µM

## COc1ccc(C2COc3c(ccc(OC)c3OC)C2=O)cc1OC (configuration not stated)
  outcome: inactive

## COC(=O)c1cc(/C=C2\Cc3cc4c(cc3C2=O)CCC4)cc2c1CCC2
  EC50: > 200 µM
  IC50: > 200 µM

## Brc1ccc(C2CC(c3cccc4ccccc34)=Nc3ccccc3S2)cc1 (configuration not stated)
  EC50: > 11.7 µM
  IC50: > 11.7 µM

## Fc1ccc(NC(=S)Nc2ccccn2)cc1
  EC50: > 158 µM
  IC50: 129 µM

## Cn1c2c(c3ccccc31)CCN=C2C1CCCOC1=O (configuration not stated)
  EC50: > 200 µM
  IC50: > 200 µM

## COc1cc2c(c3oc4c(c(=O)c13)CCCC4)CCC(C)(C)O2
  EC50: > 56.2 µM
  IC50: 23.4 µM

## NC(=O)c1cc(O)c(O)c(O)c1
  EC50: > 200 µM
  IC50: 17 µM

## CC(C)(C)c1ccc2c(c1)CNCCNCc1cc(C(C)(C)C)ccc1OCC1(CO2)COc2ccc(C(C)(C)C)cc2CNCCNCc2cc(C(C)(C)C)ccc2OC1
  EC50: > 1.51 µM
  IC50: 0.219 µM

## CN1C2CC(C#N)C1C=CC2=O (configuration not stated)
  EC50: > 200 µM
  IC50: 32.4 µM and 107 µM

## C[N+](C)=c1ccc2nc3c(ccc4ccccc43)oc-2c1
  EC50: > 60.3 µM
  IC50: 8.32 µM

## O=C(CCc1nnc2s/c(=C\c3ccccc3[N+](=O)[O-])c(=O)n12)Nc1cc(Cl)c(Cl)cc1Cl
  EC50: > 2 µM
  IC50: > 2 µM

## CC(=O)C(CN1CCCCC1)C(c1ccccc1)c1c(O)c2ccccc2oc1=O (configuration not stated)
  EC50: > 120 µM
  IC50: 117 µM

## COC(=O)CCC(C)C1CCC2[C@@H]3CC[C@@H]4CC(CSC(C)=O)CC[C@]4(C)C3CC[C@]12C (some centres not stated)
  EC50: > 29.5 µM
  IC50: > 29.5 µM

## CC(c1ccccc1O)C1CCCCC1N=O (configuration not stated)
  outcome: inactive

## Oc1cc(-c2ccccc2)cn2c1nc1ccccc12
  EC50: > 200 µM
  IC50: 1.07 µM

## FC(F)(Sc1nc2ccccc2[nH]1)c1nc2ccccc2o1
  EC50: > 200 µM
  IC50: > 200 µM

## Cc1cc(=O)n2c(n1)sc1ccc3ccccc3c12
  EC50: > 200 µM
  IC50: > 200 µM

## CCCCc1ccc(OC2OC(CO)C(O)C(O)C2O)cc1 (configuration not stated)
  EC50: > 288 µM

## CCCC(OCC)(OCC)OCC
  EC50: > 1320 µM
  IC50: > 1320 µM

## NC1CC(=O)c2sc(I)cc21 (configuration not stated)
  EC50: > 200 µM
  IC50: 102 µM

## O=C(CN1CCCCC1)c1ccc2[nH]c(=O)oc2c1
  EC50: > 200 µM
  IC50: 129 µM

## CCOC(=O)NC1=C(N2CC2)C(=O)C(NC(=O)OCC)=C(N2CC2)C1=O
  EC50: > 24.5 µM
  IC50: 6.46 µM

## CSc1nc(Nc2ccccc2Cl)c2c(N)nn(C)c2n1
  EC50: > 200 µM
  IC50: > 200 µM

## CC(NP(=O)(c1ccccc1)c1ccccc1)c1ccccc1 (configuration not stated)
  EC50: > 200 µM
  IC50: > 200 µM

## N=c1nc(N)n2c(N)nc(=N)n12
  EC50: > 155 µM
  IC50: > 155 µM

## CC(C)(C)OC(=O)NCCCCC(N)NC(=O)c1ccccc1 (configuration not stated)
  EC50: > 200 µM
  IC50: > 200 µM

## Cc1ccc(S(=O)(=O)n2cc(C=O)c(-c3cn(S(=O)(=O)c4ccc(C)cc4)cc3-c3cn(S(=O)(=O)c4ccc(C)cc4)cc3C=O)c2)cc1
  EC50: > 200 µM
  IC50: 19.5 µM

## C[N+](C)(Cc1ccco1)c1ccccc1
  EC50: > 3.16 µM
  IC50: > 3.16 µM

## O=C(Nc1cccc2ccccc12)Oc1ccccc1C1CCCCC1
  outcome: inactive

## O=C(NC1C(=O)NC(CCc2ccccc2)NC1=O)OCc1ccccc1 (configuration not stated)
  EC50: > 200 µM
  IC50: > 200 µM

## CCOC(=O)C1(C)CCC(C(=O)OC)C1=O (configuration not stated)
  EC50: > 794 µM
  IC50: 52.5 µM

## Nc1nc(Nc2ccccc2)sc1O
  EC50: > 200 µM
  IC50: 195 µM

## Cc1ccc(/C(O)=C/c2nc3ccccc3s/c2=N/CS(=O)(=O)c2ccc(C)cc2)cc1
  EC50: > 200 µM
  IC50: > 200 µM

## COc1ccc(C(F)(F)F)cc1NC(=O)O/N=C(/Cl)C(C)C
  EC50: > 20 µM
  IC50: 3.72 µM

## Nc1ncnc2c1ncn2C1C(O)C(CO)C1CO (configuration not stated)
  EC50: > 186 µM
  IC50: > 186 µM

## CC(=O)Nc1ccc(Nc2nc(=O)[nH]c(=O)[nH]2)cc1
  EC50: > 200 µM
  IC50: > 200 µM

## O=S1(=O)[C@H](c2ccccc2)c2c(-c3ccccc3)sc(-c3ccccc3)c2[C@@H]1c1ccccc1
  outcome: inactive

## COc1ccc(/C(=N/O)c2ccccc2-c2nc3ccccc3c(=O)n2-c2ccc(S(=O)(=O)Nc3nccs3)cc2)cc1C
  EC50: > 50.1 µM
  IC50: > 50.1 µM

## Cc1cn(C2CC(O)C(CO[Si](C)(C)C(C)(C)C)OC2OC(C)C)c(=O)[nH]c1=O (configuration not stated)
  EC50: > 200 µM
  IC50: 37.2 µM

## Clc1ccc(-c2nnc(C34CC5CC(CC(C5)C3)C4)o2)cc1
  EC50: > 200 µM
  IC50: > 200 µM

## COc1cc2ccc(CC(N)=O)cc2cc1OC
  outcome: inactive

## O=C([CH-]C(=O)c1ccccc1)c1ccccc1.[CH2-]C.[CH2-]C.[Tl+3]
  EC50: > 53.7 µM
  IC50: > 53.7 µM

## O=[N+]([O-])c1ccc(-c2cn3nc(-c4ccccc4)c(-c4ccccc4)nc3n2)cc1
  EC50: > 13.2 µM
  IC50: > 13.2 µM

## N=C1c2ccccc2C(=O)c2c(NCCNCCO)ccc(O)c21
  EC50: > 7.76 µM
  IC50: 0.759 µM

## O=C1c2ccccc2-c2nc3ccccc3nc21
  EC50: > 6.17 µM
  IC50: > 6.17 µM

## O=C(ON=c1c2ccccc2ccc2ccccc12)c1ccccc1
  EC50: > 200 µM
  IC50: 33.9 µM

## O=P1(C(c2ccccc2)c2ccccc2)OC2CC(Cl)CC(C2)O1 (configuration not stated)
  EC50: > 7.24 µM
  IC50: > 7.24 µM

## COC(=O)C1=CN(C2CCCCC2)C2(c3ccccc3)c3ccccc3C(=O)OC(=O)C12 (configuration not stated)
  EC50: 132 µM
  IC50: > 200 µM

## Cc1cccc(Cl)c1NC(N)=S
  EC50: > 36.3 µM
  IC50: > 36.3 µM

## Nc1c(S(=O)(=O)O)[nH]c(=O)[nH]c1=O
  EC50: > 200 µM
  IC50: > 200 µM

## NC(=O)c1cn(C2OC(CO)C(O)C2O)c(=O)[nH]c1=O (configuration not stated)
  EC50: > 871 µM
  IC50: > 871 µM

## Cn1c(N)c(N=O)c(=O)n(C)c1=S
  EC50: > 200 µM
  IC50: > 200 µM

## CN(C)CCNC(=O)c1cccc(C(=O)Nc2ccccc2)c1[N+](=O)[O-]
  EC50: > 200 µM
  IC50: > 200 µM

## C=C1CC(C)(Cn2cnc3c(N)ncnc32)OC1=O (configuration not stated)
  EC50: > 200 µM
  IC50: 11.2 µM

## O=C1[C@H]2ON(c3ccccc3)C(c3ccco3)[C@H]2C(=O)N1c1ccc(Cc2ccc(N3C(=O)[C@@H]4ON(c5ccccc5)C(c5ccco5)[C@@H]4C3=O)cc2)cc1 (some centres not stated)
  EC50: > 7.08 µM
  IC50: > 7.08 µM

## CC/C=C\C/C=C\C/C=C\CCCCCCCC(=O)OCC(O)CO (configuration not stated)
  EC50: > 28.2 µM
  IC50: > 28.2 µM

## COC(=O)C(Cc1nc2ccccc2[nH]c1=O)C(=O)C(=O)Nc1cc(C(F)(F)F)ccc1Cl (configuration not stated)
  EC50: > 74.1 µM
  IC50: 7.41 µM

## O=c1[nH]c(NCCCCCO)nc2nc[nH]c12
  EC50: > 200 µM
  IC50: > 200 µM

## COc1ccc(-n2c(-c3ccccc3)cc(-c3cccs3)c2-c2cccs2)cc1
  EC50: > 200 µM
  IC50: > 200 µM

## CCN(CC)CCOC(=O)c1ccc(NC(=O)CN(CC)CC)cc1
  EC50: > 200 µM
  IC50: > 200 µM

## Nc1ncnc2c1ncn2C1CCC(COP(=O)(O)O)O1 (configuration not stated)
  EC50: 20 µM
  IC50: > 200 µM

## Cc1cc(C(O)(c2cc(C)c(O)c(C(=O)O)c2)c2cc(C)c(O)c(C(=O)O)c2)cc(C(=O)O)c1O
  EC50: > 3.72 µM
  IC50: > 3.72 µM

## CC1=[N+]([O-])c2ccccc2C(=O)C1=O
  outcome: inactive

## COc1cc2c(cc1O)CN1Cc3c(ccc(OC)c3O)C2C1 (configuration not stated)
  EC50: > 282 µM
  IC50: 251 µM

## CN1N=CSC12C(=O)N(c1ccccc1)C(=O)N2c1ccccc1 (configuration not stated)
  outcome: inactive

## CC1(C)C(OC(=O)c2ccccc2)C[C@]23CCC[C@](C)(C[C@@H](O)C12)C3 (some centres not stated)
  EC50: > 200 µM
  IC50: 24 µM

## COc1ccc2c(-c3ccc(OCCN(C)C)cc3)c(Oc3ccccc3)c(=O)oc2c1
  EC50: > 200 µM
  IC50: 7.08 µM

## CCOC(=O)c1sc(SC)nc1NC(=O)c1ccc(OC)cc1
  EC50: > 200 µM
  IC50: > 200 µM

## S=C1CSc2c(ccc3ccccc23)N1
  EC50: > 200 µM
  IC50: 141 µM

## CCOC(=O)c1c(C)c(C(C)=O)c2ccccn12
  EC50: > 145 µM
  IC50: 95.5 µM

## CC1(C)OC(CP(c2ccccc2)c2ccccc2)C(CP(c2ccccc2)c2ccccc2)O1 (configuration not stated)
  EC50: > 2 µM
  IC50: 0.229 µM

## Cc1cccc(NC(=O)CC(=O)N2N=C(N(CCC#N)c3ccc(Cl)cc3)CC2c2ccccc2)c1 (configuration not stated)
  EC50: > 100 µM
  IC50: > 100 µM

## c1ccc(-c2csc3[nH]c4ccccc4[n+]23)cc1
  outcome: inactive

## C/C(=N\NC(=S)N1CCN(c2ccccn2)CC1)c1cccc(C)n1
  EC50: > 42.7 µM
  IC50: 0.0155 µM
